Assay results taken from EP2157088A1, “INDICYANINE DYES AND THE DERIVATIVES THEREOF FOR ANALYSING BIOLOGICAL MICROMOLECULES” (UCHREZHDENIE ROSSIISKOI AKADEMII NAUK INSTITUT …, priority 2007, dated 2008).

Legend:
Format in all cases: physicochemical
[1] = Absorption and fluorescence maxima of the dyes
Excerpt: An insertion of methyl group at 5- and 7-positions of indolenyne cycle produces a bathochromic shift in the absorption and fluorescent spectra. As to the rest sulfur containing dyes, the spectral characteristics thereof appear to be in the same range (between about λmax 648 nm and λem 669 nm) (Fig. 1),

[2] = Relative efficiency of fluorescence / absolute sensitivity of label, normalized to dye A30 in PBS; conditions: for Sensitivity of record 635/ 670: excitation 635 nm, record 670 nm; for Sensitivity of record 655/ 690: excitation 655 nm, record 690 nm; for Sensitivity of record max/ max: excitation and record in absorption and fluorescence maxima, ε*Φ normalized to A30 in PBS
Excerpt: The data obtained were as follows: • on excitation and record in absorption and fluorescence maxima, the relative efficiency of fluorescence exceeds 0.80 for dyes (A10), (A22), (A23), (A25), and (A30) in methanol and for dyes (A22), (A25), and (A30) in PBS (Table 1, Fig. 4), whereas for dyes of formula (I) (R1 = -CH3, R2= R6= -SO3^-; R3= -(CH2)5COOH, R4= -C2H5; R5= -H) the values are 0.69 in methanol and 0.67 in PBS; • on excitation at wavelength 655 nm and record at 690 nm, the relative efficiency of fluorescence exceeds 0.25 for dyes (A25) and (A30) in methanol and is higher than 0.18 for dyes (A24) and (A30) in PBS (Table 1, Fig. 5), whereas for dyes of formula (I) (R1 = -CH3, R2 = R6= -SO3^-; R3= -(CH2)5COOH, R4= -C2H5; R5= -H) the values are 0.18 in methanol and 0.11 in PBS; • on excitation at wavelength 635 nm and record at 670 nm, the relative efficiency of fluorescence exceeds 0.50 for dyes (A1), (A11), (A23) in methanol and is higher than 0.45 for dyes (A22), (A25), and (A30) in PBS (Table 1, Fig. 6), whereas for dyes of formula (I) (R1= -CH3, R2= R6= -SO3^-; R3= -(CH2)5COOH, R4= -C2H5; R5= -H) the values are 0.44 in methanol and 0.38 in PBS.
Term sensitivity of fluorescent analysis is defined by the absolute sensitivity of label that may be represented as the product of molar extinction coefficient by quantum efficiency of fluorescence (ε*Φ). Thus, there are determined the absolute sensitivity of indodicarbocyanines (A1-A30, B1-B7) in appropriate absorption and fluorescence maxima in methanol and in aqueous phosphate buffered saline. The values are normalized to the maximal value obtained for dye (A30) in PBS (Table 1). In methanol, dyes (A10, A22, A23, A25, A30) have the upper-range of absolute sensitivity, but in PBS, dyes (A10, A22, A25, A29, A30) have the maximal values of sensitivity (Fig. 4).
To determine the most appropriate dyes for instrument setting, there are measured the relative efficiency of fluorescence of dyes at wavelength of excitation and record of the instrument (655 nm. / 690 nm). The maximal values appear to be specific to dyes (A25) and (A30) in methanol, and to dyes (A19, A22, A25, A29, A30) in PBS (Table 1, Fig. 5).
There are also measured the relative efficiency of fluorescence at wavelength of excitation and record of the instrument (635 nm / 670 nm). The maximal values appear to be specific to dyes (A1, A10, A11, A23) in methanol, and to dyes (A10, A22, A25, A29, A30) in PBS (Table 1, Fig. 6).

[3] = Molar extinction coefficient in methanol and PBS; set-up: ε·10^-5: unit not given here
Description: For all indodicarbocyanine dyes (I) (A1) - (A30) and (B1) - (B7) of the invention, there are determined the molar extinction coefficients in methanol and in aqueous phosphate buffered saline (PBS) (10 mM potassium phosphate buffer, sodium chloride concentration is 0.9%, pH 7.4). In methanol, indodicarbocyanine (A1, A8, A10-A12, A17, A23) has the upper-range of molar extinction coefficient (ε >[…]). In aqueous phosphate buffered saline (PBS), dyes (A10, A23, A30) have the maximal ε-value (Fig. 2).

[4] = Quantum efficiency of fluorescence, measured versus a reference dye
Description: For all indodicarbocyanine dyes (I) (A1) - (A30) and (B1) - (B7) of the invention, there are determined the quantum efficiency of fluorescence in methanol and in aqueous phosphate buffered saline (Table 1, Fig. 3). The measurements are performed versus dyes of formula (I) (R1= -CH3, R2= R6= -SO3^-; R3= -(CH2)5COOH, R4= -C2H5, R5= -H) whose quantum efficiency of fluorescence in PBS is 0.27 (Mader O., K. Reider, H.-J. Egelhaaaf, R, Fischer, R. Brock, Structure Properties of Pentamethine Indocyanine Dyes: Identification of New Dyes for Life Science Applications. Bioconjugate Chem, 2004, vol. 15, pp. 70-78). In methanol, dyes (A10, A22, A25, A29, A30) have the upper-range of quantum efficiency of fluorescence (Φ ∼ 0.3), but in PBS, dyes (A10, A22, A25, A29, A30) have the maximal Φ -value.

[5] = PBS (10 mM potassium phosphate buffer, 0.9% sodium chloride, pH 7.4)

Row | SMILES | λmax^abs ([1]; MeOH) [nm] | λmax^em ([1]; MeOH) [nm] | λmax^abs ([1]; PBS) [nm] | λmax^em ([1]; PBS) [nm] | Sensitivity of record 635/ 670 ([2]; MeOH) | Sensitivity of record 655/ 690 ([2]; MeOH) | Sensitivity of record max/ max ([2]; MeOH) | Sensitivity of record 635/ 670 ([2]; PBS) | Sensitivity of record 655/ 690 ([2]; PBS) | Sensitivity of record max/ max ([2]; PBS) | ε·10^-5 ([3]; MeOH) | ε·10^-5 [3, 5] | Φ (quantum efficiency of fluorescence) ([4]; MeOH) | Φ (quantum efficiency of fluorescence) ([4]; PBS)
1 | CCN1C(=CC=CC=CC2=[N+](CCCCS(=O)(=O)[O-])c3ccc(C)cc3C2(C)CCCCC(=O)O)C(C)(C)c2ccccc21 (centres unmarked) [A4, 3-(4-Carboxybutyl)-N-(4-sulfobutyl)-3,3',3',5-tetramethyl-N'-ethylin:dodicarbpcyanine] | 651 | 668 | 649 | 665 | 0.243 | 0.143 | 0.381 | 0.162 | 0.054 | 0.255 | 2.14±0.03 | 2.1 ± 0.03 | 0.14 | 0.10
2 | CCN1C(=CC=CC=CC2=[N+](CCCCS(=O)(=O)[O-])c3ccccc3C2(C)CCCCC(=O)O)C(C)(C)c2ccccc21 (centres unmarked) [A1, 3-(4-carboxybutyl)-N-(4-sulfobutyl)-3,3',3'-trimethyl-N'-ethylindodicarbocyanine] | 644 | 662 | 643 | 657 | – | 0.025 | 0.737 | 0.123 | 0.153 | 0.372 | 2.47±0.02 | 2.06±0.02 | 0.25 | 0.13
3 | CCN1C(=CC=CC=CC2=[N+](CCCCS(=O)(=O)[O-])c3ccc(C)cc3C2(C)CCCCC(=O)O)C(C)(C)c2cc(C)ccc21 (centres unmarked) [A5, 3-(4-Carboxybutyl)-3,3',3',5,5'-pentamethyl-N-(4-sulfobutyl)-N'-ethylindodicarbocyanine] | 654 | 674 | 653 | 670 | 0.212 | 0.229 | 0.391 | 0.136 | 0.096 | 0.238 | 2.05±0.02 | 1.96±0.02 | 0.16 | 0.09

The next lines start with the values.

Row | λmax^abs ([1]; MeOH) [nm] | λmax^em ([1]; MeOH) [nm] | λmax^abs ([1]; PBS) [nm] | λmax^em ([1]; PBS) [nm] | Sensitivity of record 635/ 670 ([2]; MeOH) | Sensitivity of record 655/ 690 ([2]; MeOH) | Sensitivity of record max/ max ([2]; MeOH) | Sensitivity of record 635/ 670 ([2]; PBS) | Sensitivity of record 655/ 690 ([2]; PBS) | Sensitivity of record max/ max ([2]; PBS) | ε·10^-5 ([3]; MeOH) | ε·10^-5 [3, 5] | Φ (quantum efficiency of fluorescence) ([4]; MeOH) | Φ (quantum efficiency of fluorescence) ([4]; PBS) | SMILES
4 | 654 | 672 | 656 | 676 | 0.151 | 0.198 | 0.292 | 0.089 | 0.085 | 0.170 | 2.13±0.03 | 1.82±0.03 | 0.11 | 0.07 | CC[N+]1=C(/C=C/C=C/C=C2/N(CCCCS(=O)(=O)[O-])c3ccc(C)cc3C2(C)CCCCC(=O)O)C(C)(C)c2cc(C)cc(C)c21 (centres unmarked) [A6, 3,3',3',5,5'.7'-hexamethyl-3-(4-carboxybutyl)-N-(4-sulfobutyl)-N'-ethylindodicarbocyanine]
5 | 647 | 660 | 646 | 663 | 0.359 | 0.102 | 0.514 | 0.207 | 0.049 | 0.353 | 1.78±0.02 | 1.80±0.03 | 0.23 | 0.14 | CCN1/C(=C/C=C/C=C/C2=[N+](CC)c3ccc(S(=O)(=O)[O-])cc3C2(C)C)C(C)(CCCCC(=O)O)c2ccccc21 (centres unmarked) [A7, N,N'-diethyl-3-(4-carboxybutyl)-5'-sulfo-3,3',3'-trimethylindodicarbocyanine]
6 | 649 | 667 | 647 | 662 | 0.320 | 0.149 | 0.442 | 0.184 | 0.068 | 0.261 | 2.01±0.01 | 1.99±0.03 | 0.17 | 0.09 | CC[N+]1=C(/C=C/C=C/C=C2/N(CCCCS(=O)(=O)[O-])c3ccccc3C2(C)CCCCC(=O)O)C(C)(C)c2cc(C)ccc21 (centres unmarked) [A2, 3-(4-Carboxybutyl)-N-(4-sulfobutyl)-3,3',3',5'-tetramethyl-N'-ethylindodicarbocyanine]
